Legend:
[1] = test system: LRRK2 G2019S flies; assay: fly viability / survival of mutant LRRK2 G2019S flies; format: in vivo; conditions: for effect on fly viability / mortality: concentrations in the 50–100 μM range; for effect on fly viability: ligand concentration 500 μM
Method: Studies have shown that expression of the LRRK2-G2019S mutantion in Drosophila caused more severe PD phenotypes, including locomotor dysfunction, loss of dopaminergic neurons, and early mortality, relative to that of wild-type LRRK2 [31]. Prior to evaluating compounds 5 and 6 in the Drosophila model of PD, the effect of compound concentrations on fly viability was studied. At the ligand concentration of 500 μM, both compounds were lethal to G2019S flies (data not shown). […] As there was no remarkable difference in the survival rate between 50 and 100 μM for compound 5, this range was selected for compound 5 for the subsequent climbing assay and quantification of DA neurons.
Fly lines for 24B-Gal4 (muscle specific), ddc-Gal4 (dopaminergic neuron-specific), elav-Gal4 (pan-neuronal), UAS-mito-GFP, and UAS-dAMPK-KA were purchased from Bloomington Drosophila Stock Center. The parkin-null mutant flies were kind gifts from Chung J. and Cho K. S. (Korea Advanced Institute of Science and Technology, Daejeon, Korea). To generate transgenic mutant LRRK2 G2019S, cDNA containing a myc-tag at the C terminus was inserted into pUAST plasmid and microinjected into Drosophila embryos (BestGene). Sequencing of cloned products was performed before they were microinjected into the embryos. Climbing assays were performed according to a previously described method. Briefly, 20 female adult flies from each group were randomly selected after being anaesthetised and placed in a vertical plastic column (length 25 cm; diameter 1.5 cm). Age-matched normal flies were used as controls. After a 2-hour recovery period from CO2 exposure, flies were gently tapped to the bottom of the column, and the number of flies that reached the top of column at 1 min was counted. Results are presented as mean ± SEM of the scores obtained from three independent experiments. To study the effect of compounds, flies were fed with cornmeal-agar medium supplemented with the DMSO solution of the compound immediately at post-eclosion (for parkin-null flies) or at day 35 onwards (for LRRK2 mutant flies) for a period of 25 days. Immunohistochemical analysis of whole-mount adult fly brains were prepared according to published protocols and stained with rabbit anti-TH (1:300, Pel-Freez Biologicals) as primary antibody. The stained samples were viewed using an Olympus Fluoview Upright Confocal Microscope. DA neurons were quantified according to previously published method. The size of mito-GFP puncta was measured using the ImageJ program and expressed as mean ± SD (n ≥ 10 DA neurons per experimental group). Statistical significance for all the quantitative data obtained were analyzed using one-way ANOVA with Tukey’s test HSD post hoc test (*p < 0.05, **p < 0.01).

[2] = test system: Salmonella strains TA98 and TA100; assay: Ames mutagenicity test; format: cell-based, Salmonella typhimurium; conditions: 10 μM and 100 μM; TA98 and TA100, +S9 and –S9
Method: In the toxicity studies, in vitro assays for mutagenicity and cytotoxicity were performed on compounds 5 and 6. These compounds were investigated for their mutagenic potential through the Ames assay. Two Salmonella strains TA98 and TA100 with pre-existing mutations (His^-) were selected. Both strains are unable to synthesize histidine (one of the growth requirements for these strains) and therefore cannot form colonies on the agar plate.
Together with the compounds, the Salmonella strains were incubated in the presence (+S9) and absence (–S9) of a metabolizing system “S9 mix” consisting of 9000 g supernatant fraction of rat liver microsomes, nicotinamide adenine dinucleotide phosphate (NADP) and cofactors. Exogenous “S9 mix” was included due to the lack of CYP metabolizing enzymes in Salmonella typhimurium. In the assay, agar plates +S9 and–S9 were used to detect pro-mutagens for cases where the native chemical was not mutagenic but its metabolites were mutagens, and direct-acting mutagens, respectively. […]
In vitro mutagenicity was performed using a modified Ames Test protocol according to manufacturer’s instructions (MolTox). […] The cultures were then measured for absorbance with a UV spectrophotometer at 660 nm and to be used at a density of approximately 1.0 to 1.2 absorbance units. […] Images of colonies were captured and counted with the aid of ImageJ software.

Cc1cc(C)nc(N2CCN(C(=O)c3c[nH]c4ccccc34)CC2)n1 [Compound 5, 3‐[4‐(4,6‐Dimethylpyrimidin‐2‐yl)piperazine‐1‐carbonyl]‐1H‐indole]
effect on fly viability / mortality [1]: able to delay the G2019S fly mortality
effect on fly viability [1]: lethal
mutagenicity (number of His+ revertants) [2]: no significant mutagenicity

Cc1cc(C)nc(N2CCN(C(=O)Cc3c(C)[nH]c4ccccc34)CC2)n1 [Compound 6, 1‐[4‐(4,6‐Dimethylpyrimidin‐2‐yl)piperazin‐1‐yl]‐2‐(2‐methyl‐1H‐indol‐3‐yl)ethan‐1‐one]
effect on fly viability / mortality [1]: toxicity
effect on fly viability [1]: lethal
mutagenicity (number of His+ revertants) [2]: no significant mutagenicity

— publication PMC5755735, “Discovery of indolylpiperazinylpyrimidines with dual-target profiles at adenosine A2A and dopamine D2 receptors for Parkinson's disease treatment” (PLoS ONE, 2018)
